Patent US8513205B2, “Potent chimeric NRTI-NNRTI bifunctional inhibitors of HIV-1 reverse transcriptase” (Yale University, priority 2008, dated 2013)
Where two headings read alike, the source gives them in different places.

Tests used:
HIV-1 RT [1] = target: T1, HIV-1 RT (Human immunodeficiency virus type 1 group M subtype B, UniProt P03366); assay: Steady-state competition assay, inhibition of single nucleotide incorporation by HIV-1 RT; type: biochemical
T1 construct: heterodimeric p66/p51 wild-type HIV-1 RT; His tag (histidine tag) (C); made in house
Method: dTTP and dGTP were purchased from GE Biosciences. Oligonucleotide primers and template were synthesized and purified using 20% denaturing gel-electrophoresis. […] Labeling and annealing of primer/templates were performed as described previously. Murakami, et al., J. Biol. Chem. 2003, 278, 36403-36409. Expression and Purification of HIV-1 RT.
C-terminal histidine tagged heterodimeric p66/p51 wild-type HIV-1 RT was expressed and purified as described previously (Kerr and Anerson, Biochemistry, 1997, 36, 14064-14070) using a clone generously provided by Stephen Hughes, Paul Boyer, and Andrea Ferris (Fredrick Cancer Research and Development Center, Fredrick, Md.).
DMSO concentrations were kept constant at less than 2%. DMSO alone was added as a no inhibitor control for each set of experiments. Reactions were initiated with the addition of 5 μM dNTP and 10 mM MgCl2 and were quenched after 15 minutes at 37° C. with 0.3 M EDTA. All concentrations represent final concentrations after mixing. Reaction products were subjected to 20% denaturing polyacrylamide gel-electrophoresis and quantitated on a Bio-Rad Molecular Imager FX. Product formation was plotted as a function of inhibitor concentration and fitted to a hyperbola to generate IC50 curves. IC50 values are defined as the concentration of inhibitor that inhibits steady-state single nucleotide incorporation by 50%.

HIV-1 RT [2] = target: T1, HIV-1 RT; assay: Incorporation assay under single turnover conditions (gel, FIG. 7); type: biochemical; details: 30 min, with Mg++; for incorporation into primer opposite template A: D23/D36mer, primer for T incorporation, no dTTP; for incorporation into primer opposite template C: D24/D36mer, primer for G incorporation, no dGTP
Method: Controls for both primer/templates include 0 time points (lanes 1 and 4) and incubation for 30 min. with no Mg^++ (lanes 2 and 5).
Incorporation experiments were performed under single turnover conditions; 50 μM d4U-TP-4PEG-TMC and 10 mM MgCl2 were mixed with 250 nM RT (active sites) and 50 nM 5′-labeled primer/template to initiate the reaction. Negative controls were performed under identical conditions without MgCl2. The reaction was allowed to proceed for 30 minutes at 37° C., after which the reaction was quenched with 0.3 M EDTA. Reaction products were subjected to 20% denaturing polyacrylamide gel-electrophoresis and analyzed on a Bio-Rad Molecular Imager FX.

[3] = inhibition of dGTP incorporation opposite template C, D24/D36mer primer-template, read-out: IC50 incorrect base pair
[4] = inhibition of dTTP incorporation opposite template A, D23/D36mer primer-template, read-out: IC50 correct base pair

Structure (SMILES) | fold improvement in potency relative to TMC-4PEG-OH (HIV-1 RT [1]; correct base pair, D23/D36mer) [fold] | IC50 (HIV-1 RT [1]; [3]) [µM] | IC50 (HIV-1 RT [1]; [4]) [µM] | incorporation into primer opposite template A (HIV-1 RT [2]; listed as d4U-TP-4PEG-TMC) | incorporation into primer opposite template A (HIV-1 RT [2]; listed as d4UTP-4PEG-TMC) | incorporation into primer opposite template C (HIV-1 RT [2]; listed as d4U-TP-4PEG-TMC) | incorporation into primer opposite template C (HIV-1 RT [2]; listed as d4UTP-4PEG-TMC) | fold improvement relative to d4T-TP (HIV-1 RT [1]; correct base pair, D23/D36mer) [fold] | fold improvement relative to the TMC-derivative (HIV-1 RT [1]; correct base pair, D23/D36mer) | fold lower potency relative to parent TMC-derivative (HIV-1 RT [1]; correct base pair, D23/D36mer) [fold]
Cc1cc(C#CCOCCOCCOCCOCCOCC#Cc2cn(C3C=CC(CO)O3)c(=O)[nH]c2=O)cc(C)c1Oc1ccnc(Nc2ccc(C#N)cc2)n1 (centres unmarked) [1b, d4U-propynyl-4-PEG-propynyl-TMC-120] | 3 | 0.035 | 0.016 | – | – | – | – | – | – | –
Cc1cc(C#CCOCCOCCOCCOCCOCC#Cc2cn(C3C=CC(COP(=O)(O)OP(=O)(O)OP(=O)(O)O)O3)c(=O)[nH]c2=O)cc(C)c1Oc1ccnc(Nc2ccc(C#N)cc2)n1 (centres unmarked) [1c, d4U-propynyl-4-PEG-propynyl-TMC-120 Triphosphate] | – | 0.038 | 0.003 | formation of an elongated primer chain terminated with the bifunctional monophosphate | incorporation of the bifunctional-TP | not the D24/36mer primer-template | no product | > 500 | 4-5 fold | –
Cc1cc(C#CCOCCOCCOCCOCCO)cc(C)c1Oc1ccnc(Nc2ccc(C#N)cc2)n1 [TMC-4PEG-OH, E, 4-(4-{4-[3-(2-{2-[2-(2-Hydroxy-ethoxy)-ethoxy]-ethoxy}-ethoxy)-prop-1-ynyl]-2,6-dimethyl-phenoxy}-pyrimidin-2-ylamino)-benzonitrile] | – | 0.029 | 0.049 | – | – | – | – | – | – | 4
